Here are results for 20 molecules from patent US20040266834A1, “Thiazolidinediones alone or in cabination with other therapeutic agents for cancer therapy” (priority 1999, published 2004).

The conditions of data set [1]: cited from earlier work.
In another data set the test system is multiple myeloma. Particulars: oral administration; cited from earlier work.
In another data set the test system is CaOV3 cells. Nature of the data set: DNA content, ovarian tumor cells CaOV3. Particulars: 3 days; for inhibition at 10 µM: Homo sapiens, Caov-3, 72 h, read-out: inhibition of cell proliferation. In kind it is cell-based, human. The procedure: (§1) […]. At the end of 3 days DNA content was determined as a measure of cell proliferation.
(§2) Concentration of cellular DNA was determined using Hoechst dye H 33258 and a Hoefer DyNA Quant fluorometer according to manufacturer's instructions. Results are expressed as μg DNA/well. All experiments were done in triplicate.

Another data set relates to 222 cells. Nature of the data set: DNA content, ovarian tumor cells 222. In kind it is cell-based. Particulars: Homo sapiens, 72 h, 3 days, read-out: inhibition of growth. As for the experimental part: as §1, §2
The test system of another data set is PA-1 cells. As to the kind of experiment: DNA content, ovarian tumor cells PA-1. Format: cell-based. Particulars: Homo sapiens, 72 h, 3 days, read-out: inhibition of cell proliferation. The procedure:
as §1, §2

In another data set the test system is human ovarian 2774 cells. Nature of the data set: DNA content, ovarian 2774 cells, combinatorial therapy. Format: cell-based. Particulars: taxol 1 ng/ml, cis-platin 100 ng/ml, troglitazone 5 or 10 μM, alone or combined. As for the experimental part:
as §1, §2

Data set [2] relates to three renal cell carcinoma cell lines. Nature of the data set: DNA content, three renal cell carcinoma cell lines taken together. Format: cell-based, human. Particulars: 10 μM; UMCR 3, 6 and 7. As for the experimental part: Human renal tumor cells (URMC 3, 6, 7) were cultured in 5% fetal bovine serum, penicillin/streptomycin, and alpha-MEM media. […] At the end of 3 days DNA content was determined as a measure of cell proliferation.
as §2

The test system of data set [3] is Saos-2 cells. Nature of the data set: Lactate dehydrogenase (LDH) activity in media, Saos-2. Format: cell-based, human. As for the experimental part: Saos-2 cells were purchased from ATCC (Rockville, Md.) and cultured in 10% fetal bovine serum, penicillin/streptomycin, and DMEM media. Cells exposed to a single treatment of troglitazone, 5-fluorouracil, and/or cis-platinum for 3 days. At the end of 3 days media was tested for lactate dehydrogenase (LDH) activity as a measure of cell toxicity and DNA content was determined as a measure of cell proliferation. The phrase “cell proliferation” is used herein interchangeably with “cell growth.”
Media from treated cells was assayed for LDH activity with a colorimetric dye-oxidation method which has been previously described (11). Briefly, the assay mix including lactate, NAD, INT dye and diaphorase in PBS was added to media from the cells and incubated 30 minutes. Red color development is indicative of INT […] to formazan product, giving an indication of LDH activity when measured at 490 nm.

For another data set, the system named is HCT 15 cells. Particulars: cited from earlier work.
A further data set relates to HCT 116 cells. Particulars: cited from earlier work.
Data set [4] relates to Saos-2 cells. As to the kind of experiment: DNA content (Hoechst H 33258) as measure of cell proliferation, Saos-2. In kind it is cell-based, human. The procedure: Cells exposed to a single treatment of troglitazone, 5-fluorouracil, and/or cis-platinum for 3 days. […] The phrase “cell proliferation” is used herein interchangeably with “cell growth.” Concentration of cellular DNA was determined using Hoechst dye H 33258 and a Hoefer DyNA Quant fluorometer according to manufacturer's instructions. Results are expressed as μg DNA/well. All experiments were done in triplicate.

For data set [5], the system named is Saos-2 cells. Nature of the data set: [3H]thymidine incorporation, Saos-2. In kind it is cell-based, human. As for the experimental part: Saos-2 cells (10,000/well) were seeded into wells of 12-well plates and grown for 4 days until near confluent. […]. [Methyl-^3H]thymidine (1 μCi) and thymidine (3 μM) were then added to each well, and the incubation was continued for another 4 h. Cells were rinsed with ice-cold PBS twice and were treated with ice-cold 10% TCA. The cells were then rinsed twice with PBS and solubilized in 400 μl of solution composed of 0.03% SDS in 0.3 N NaOH. The extracts were neutralized with HCl, and radioactivity incorporated into the cells was quantified by liquid scintillation spectrometry.

The next data set relates to p21 mRNA. Nature of the data set: Ribonuclease protection assay, cell cycle regulator mRNA. Format: cell-based, human. Particulars: single treatment 1 μM, 24 hr, normalized to GAPDH. The procedure:
To determine whether troglitazone effected any of the cell cycle regulator genes, ribonuclease protection assay (RPA) was performed measuring mRNAs encoding p130, Rb, p107, p53, p57, p27, p21, p19, p18, p16, p14/15 and the housekeeping gene products L32 and GAPDH. […] Cells were lysed and total RNA was isolated. […] Ribonuclease protection assay was performed using kit according to manufacturer instructions (PharMingen, San Diego, Calif.). Conditions that were optimized included using 20 μg of total RNA from Hs578T cells and a 1:200 dilution of RNAse A/T (200 units/ml RNase A and 10,000 units/ml RNase T). […] Results are reported as the ratio of […] signal. All experiments were done in triplicate from different RNA preparations.

In the next data set the test system is PPARγ in UMCR 3 cells. As to the kind of experiment: PPRE/luciferase reporter, UMCR 3. Format: cell-based, human. Particulars: 10 μM, 24-hour treatment. The procedure: A tandem PPRE luciferase expression plasmid was constructed using three copies of a consensus PPRE 5′ to the luciferase gene. Cells were transfected using the calcium phosphate method of transfection. 10 μg of PPRE/luciferase reporter plasmid was transfected into URMC 3, 6, and 7 cells. A CMV-CAT reporter plasmid was cotransfected (0.5 μg) with PPRE/luciferase as an internal control for transfection efficiency. CAT activity was measured by ELISA as described by Boehringer-Mannheim. […] Cells lysates were prepared and luciferase activity was determined using an AutoLumat luminometer.
On the technique in general: Reporter assays use an easily measured gene product as a stand-in for the process of interest.

The conditions of data set [6]: humans; cited from earlier work.

≈ marks a conversion by molar mass, not a printed value. Where a name gives a salt, the structure may show the parent alone. Starred links: 1 amine or outer side, 2 acyl side, 3 side chain; linkers in the order of their positions; H or OH if unused. Positions of bridges follow the written chain, without caps; N, C: chain ends. Non-standard residues stand in square brackets, D forms with d. Residues, ends and D or L forms follow the SMILES beside them. Chains are numbered I, II in the order given. Actinocin(9to1) = Cc1c2oc3c(C)ccc(C(=O)[*:1])c3nc-2c(C(=O)[*:2])c(N)c1=O; NMeV = CN[C@H](C(=O)O)C(C)C; Sar = CNCC(=O)O

`COc1cccc2c1C(=O)c1c(O)c3c(c(O)c1C2=O)C[C@@](O)(C(C)=O)C[C@@H]3O[C@H]1C[C@H](N)[C@H](O)[C@H](C)O1` [Daunorubicin, 5,12-Naphthacenedione, (8S-cis)-8-acetyl-10-[(3-amino-2,3,6-trideoxy-a-L-lyxo-hexanopyranosyl)oxy]-7,8,9,10-tetrahydro-6,8,11-trihydroxy-10-methoxy-, hydrochloride]: the oral absorption result in data set [1] (in vivo) is recorded as “poor”.
For `N[C@@H](Cc1ccc(N(CCCl)CCCl)cc1)C(=O)O` [Melphalan, 4-[bis(2-chloroethyl)amino]-L-phenylalanine], the “patients showing a favorable response” value in the data set on multiple myeloma is “one third to one half”.
For `CCc1ccc(CCOc2ccc(CC3SC(=O)NC3=O)cc2)nc1` (stereo not shown) [pioglitazone], the inhibition at 10 µM is 60% in the data set with CaOV3 cells, 36% in the data set with 222 cells and 60 to 70% in the data set with PA-1 cells.
On to `CC[C@]1(O)C[C@@H]2CN(CCc3c([nH]c4ccccc34)[C@@](C(=O)OC)(c3cc4c(cc3OC)N(C)[C@H]3[C@@](O)(C(=O)OC)[C@H](OC(C)=O)[C@]5(CC)C=CCN6CC[C@]43[C@@H]65)C2)C1` [vinblastine], for which the oral absorption entry in data set [1] (in vivo) is “Unpredictable absorption”.
Turning to `N.N.[Cl][Pt][Cl]` [cis-platin], in the data set with human ovarian 2774 cells, the “inhibition of cell proliferation” value is given as 55%. In addition, the oral absorption result in [1] (in vivo) is “not absorbed orally”.
Turning to `CC1=C(/C=C/C(C)=C\C=C\C(C)=C\C(=O)O)C(C)(C)CCC1` [9-cis-retinoic acid], in [2], the “growth inhibitory activity (FIGS. 13-15)” value is “little on no growth inhibitory activity”.
In the case of `CC(=O)O[C@H]1C(=O)[C@@]2(C)[C@H]([C@H](OC(=O)c3ccccc3)[C@]3(O)C[C@H](OC(=O)[C@H](O)[C@@H](NC(=O)c4ccccc4)c4ccccc4)C(C)=C1C3(C)C)[C@]1(OC(C)=O)CO[C@@H]1C[C@@H]2O` [taxol], the inhibition at 0.001 µg/mL in the data set with human ovarian 2774 cells (Homo sapiens, read-out: inhibition of cell proliferation) was 28%.
For `CC1=C(/C=C/C(C)=C/C=C/C(C)=C/C(=O)O)C(C)(C)CCC1` [all trans retinoic acids], the “growth inhibitory activity (FIGS. 13-15)” value in [2] is reported as “little on no growth inhibitory activity”.
For vitamin E, in the data set on Saos-2 cells [3] (100 μM), the “cell killing (microscopic examination and LDH levels in the media)” value is on record as “cells are being killed”. Besides, the IC50 (in general, the concentration that inhibits the measured activity by half) was 0.75 mM in the data set on HCT 15 cells and 3 mM in the data set on HCT 116 cells.
In the case of `Cc1c2oc3c(C)ccc(C(=O)N[C@@H]4C(=O)N[C@H](C(C)C)C(=O)N5CCC[C@H]5C(=O)N(C)CC(=O)N(C)[C@@H](C(C)C)C(=O)O[C@@H]4C)c3nc-2c(C(=O)N[C@@H]2C(=O)N[C@H](C(C)C)C(=O)N3CCC[C@H]3C(=O)N(C)CC(=O)N(C)[C@@H](C(C)C)C(=O)O[C@@H]2C)c(N)c1=O` [Actinomycin D] (I: T[dV]P[Sar][NMeV] / II: T[dV]P[Sar][NMeV]; ester I:1-I:C, II:1-II:C; linker I:N-II:N via Actinocin(9to1)), in [1] (in vivo), the “passage of the blood-brain barrier” value was “does not pass”.
As for `O=NN(CCCl)C(=O)NC1CCCCC1` [Lomustine, 1-(2-chloro-ethyl)-3-cyclohexyl-1 nitrosourea], in [1] (in vivo), the “serum half-life of the metabolites” value is 16 to 48 h. Besides, in [1] (oral, 30 mg/m^2 to 100 mg/m^2, radioactive drug), the “radioactivity excreted as degradation products within 24 hours” value is “about half”.
Regarding `O=C(O)CCC(=O)O` [succinic acid], in the data set with Saos-2 cells [4] (100 μM), the “effect upon cell proliferation” value is given as “no effect”.
With `O=C(O)CCCc1ccc(N(CCCl)CCCl)cc1` [Chlorambucil, 4-[bis(2-chlorethyl)amino] benzenebutanoic acid], the oral absorption entry in data set [1] (in vivo) is “rapidly and completely absorbed”.
Take `Cc1c(C)c2c(c(C)c1OC(=O)CCC(=O)O)CC[C@@](C)(CCC[C@H](C)CCC[C@H](C)CCCC(C)C)O2` [Vitamin E succinate]: in the data set on Saos-2 cells [4] (single treatment), the “inhibition of cell proliferation, compounds compared (FIG. 7)” value was “somewhat less effective than troglitazone”.
For `Cc1c(C)c2c(c(C)c1O)CCC(C)(COc1ccc(CC3SC(=O)NC3=O)cc1)O2` (racemic) [troglitazone, ±5-[[4-[(3,4-dihydro-6-hydroxy-2,5,7,8-tetramethyl-2H-1-benzopyran-2-yl)methoxy]phenyl]methyl]-2,4-thiazolidinedione], in the data set on Saos-2 cells [4] (Homo sapiens, 72 h, Saos-2 cells, 3 days after a single treatment, read-out: IC50 (DNA content per well)), the IC50 was in the range of 1 to 10 µg/mL (≈ 2.26 to 22.6 µM). For the same molecule, the “ability to inhibit cell proliferation in combinatorial therapy (5-FU, doxorubicin)” value in the data set with Saos-2 cells [4] (compared with the other thiazolidinediones) is “superior to pioglitazone and BRL49653”. In the data set with Saos-2 cells [3] (any concentration used, 3 days of treatment), the “LDH levels in the media as compared to controls” value is given as “not altered”. In addition, the “lethality to Saos-2 cells (LDH activity)” value with Saos-2 cells [3] (up to 30 μg/ml, 3 days) is given as “not lethal”. Further, the “decrease in 3H-thymidine incorporation” value in the data set with Saos-2 cells [5] (10 μg/ml, 24 h exposure) is roughly 45%. In the data set on Saos-2 cells [5] (Homo sapiens, SAOS-2, read-out: inhibition of 3H-uridine uptake, 5 μg/ml, 18 hours), the inhibition at 5 µg/mL was 16%. Moreover, the inhibition at 10 µg/mL in the data set with Saos-2 cells [5] (Homo sapiens, SAOS-2, read-out: inhibition of 3H-uridine uptake, 10 μg/ml, 18 hours) stood at 43%. Moreover, in the data set with p21 mRNA, the “increase in p21 mRNA levels” value was 2.6 fold. Also, the “stimulation of PPRE/luciferase transcription” value with PPARγ in UMCR 3 cells is 3 fold. In the data set with CaOV3 cells (10 μM), the “inhibition of cell proliferation” value is “no inhibitory activity”. Moreover, the inhibition at 10 µM in the data set with 222 cells is 50%; in the data set with PA-1 cells, 60 to 70%.
As for `O.O=P1(N(CCCl)CCCl)NCCCO1` (stereo not shown) [Cyclophosphamide, 2H-1,3,2-Oxazaphosphorin-2-amine, N,N-bis(2-chloroethyl)tetrahydro-, 2-oxide, monohydrate], the “stability in the gastrointestinal tract” value in data set [1] (in vivo) was “stable”.
As for `CN(CCOc1ccc(CC2SC(=O)NC2=O)cc1)c1ccccn1` (stereo not shown) [rosiglitazone], the inhibition at 10 µM is 60% with CaOV3 cells, 4% in the data set with 222 cells and 60 to 70% in the data set with PA-1 cells.
Regarding `CO[C@@]12[C@H](COC(N)=O)C3=C(C(=O)C(C)=C(N)C3=O)N1C[C@@H]1N[C@@H]12` [mitomycin], the “dose recovered/excreted in the urine” value in data set [6] is on record as “Approximately 10%”.
For the molecule `COc1cccc2c1C(=O)c1c(O)c3c(c(O)c1C2=O)C[C@@](O)(C(=O)CO)C[C@@H]3O[C@H]1C[C@H](N)[C@H](O)[C@H](C)O1` [Doxorubicin, 5,12-Naphthacenedione, (8s-cis)-10-[(3-amino-2,3,6-trideoxy-a-L-lyxo-hexopyranosyl)oxy]-7,8,9,10-tetrahydro-6,8,11-trihydroxy-8-(hydroxyacetyl)-1-methoxy-hydrochloride], in [1] (in vivo), the oral absorption result was “absorbed poorly” and the “secreted into the bile” value is “Forty to 50”.
In the case of `CC[C@]1(O)C[C@H]2CN(CCc3c([nH]c4ccccc34)[C@@](C(=O)OC)(c3cc4c(cc3OC)N(C=O)[C@H]3[C@@](O)(C(=O)OC)[C@H](OC(C)=O)[C@]5(CC)C=CCN6CC[C@]43[C@@H]65)C2)C1` [vincristine], the oral absorption result in data set [1] (in vivo) is given as “Unpredictable absorption”.
